These results are taken from US12331040B2 (Karyopharm Therapeutics Inc., priority 2013, dated 2025).

Test in all cases: MTT cell proliferation assay
Holding throughout (format): cell-based
A general note: Tetrazolium assays rely on reduction of a dye to a coloured formazan, in cell work by metabolically active cells.

One experiment has as its system MS751 cells. The following applies: Homo sapiens, MS751, MS751 cells, approximately 64-72 hours incubation. The essentials:
(§1)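 Cytotoxicity was measured by MTT: OD490 of the solubilized formazan after roughly 4 h with MTT reagent, reported as mean percent inhibition relative to the negative control. Test compounds covered eight concentrations between 1 nM and 30 μM, added to 5,000–10,000 cells per well that had attached overnight.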

Another experiment relates to Z138 cells. The following applies: Homo sapiens, Z-138, Z138 cells, approximately 64-72 hours incubation. The essentials: as §1
A further experiment relates to 3T3 cells. Particulars: Mus musculus, NIH3T3, approximately 64-72 hours incubation. Summed up: as §1
[1] abbreviates: read-out: MTT Assay IC50 MS-751.
Where [2] appears, read: read-out: MTT Assay IC50, MS-751.
[3] abbreviates: read-out: MTT Assay IC50, Z-138.

Molecules are shown by their SMILES. Like-named read-outs stand apart in the source and are kept apart here.

For the molecule `Nc1ccc(/C=C/C(=O)NCc2cc3cc(-c4ncc(C(=O)N5CCOCC5)cn4)cc(C(F)(F)F)c3o2)cn1` [Compound 593, (E)-3-(6-aminopyridin-3-yl)-N-((5-(5-(morpholine-4-carbonyl)pyrimidin-2-yl)-7-(trifluoromethyl)benzofuran-2-yl)methyl)acrylamide], the IC50 (in general, the concentration at which inhibition is half-maximal) in the experiment with MS751 cells (setting [1]) is 100 to 5000 nM; in the experiment with Z138 cells (read-out: MTT Assay IC50 Z-138), 100 to 5000 nM; in the experiment with 3T3 cells (read-out: MTT Assay IC50 3T3), greater than 10000 nM.

With `CC1(O)CN(C(=O)c2ccc(-c3cc(C(F)(F)F)c4oc(CNC(=O)/C=C/c5ccc(N)nc5)cc4c3)nc2)C1` [Compound 621, (E)-3-(6-aminopyridin-3-yl)-N-((5-(5-(3-hydroxy-3-methylazetidine-1-carbonyl)pyridin-2-yl)-7-(trifluoromethyl)benzofuran-2-yl)methyl)acrylamide], the IC50 is 100 to 5000 nM in the experiment on MS751 cells (setting [1]), 100 to 5000 nM in the experiment on Z138 cells (read-out: MTT Assay IC50 Z-138) and greater than 10000 nM with 3T3 cells (read-out: MTT Assay IC50 3T3).

`O=C(/C=C/c1cccnc1)NCc1cc2cc(-c3ccc(C(=O)N4CCC(F)(F)CC4)cn3)cc(C(F)(F)F)c2o1` [Compound 671, (E)-N-((5-(5-(4,4-difluoropiperidine-1-carbonyl)pyridin-2-yl)-7-(trifluoromethyl)benzofuran-2-yl)methyl)-3-(pyridin-3-yl)acrylamide]: the IC50 in the experiment on MS751 cells (setting [2]) was 100 to 5000 nM; in the experiment on Z138 cells (setting [3]), 100 to 5000 nM; with 3T3 cells (read-out: MTT Assay IC50, 3T3) it was 100 to 5000 nM.

Turning to `Nc1ccc(/C=C/C(=O)NCc2cc3cc(-c4ccc(C(=O)N5CC[C@@H](F)C5)cc4)cc(C(F)(F)F)c3o2)cn1` [Compound 522, (R,E)-3-(6-aminopyridin-3-yl)-N-((5-(4-(3-fluoropyrrolidine-1-carbonyl)phenyl)-7-(trifluoromethyl)benzofuran-2-yl)methyl)acrylamide], the IC50 in the experiment on MS751 cells (setting [1]) is 100 to 5000 nM; in the experiment on Z138 cells (read-out: MTT Assay IC50 Z-138), 100 to 5000 nM; in the experiment on 3T3 cells (read-out: MTT Assay IC50 3T3) it was greater than 10000 nM.

As for `CC1(O)CCN(C(=O)c2ccc(-c3cc(C(F)(F)F)c4oc(CNC(=O)/C=C/c5ccc(N)nc5)cc4c3)nc2)C1` (stereo not drawn) [Compound 627, (E)-3-(6-aminopyridin-3-yl)-N-((5-(5-(3-hydroxy-3-methylpyrrolidine-1-carbonyl)pyridin-2-yl)-7-(trifluoromethyl)benzofuran-2-yl)methyl)acrylamide], the IC50 with MS751 cells (setting [1]) was less than 100 nM; in the experiment on Z138 cells (read-out: MTT Assay IC50 Z-138), less than 100 nM; with 3T3 cells (read-out: MTT Assay IC50 3T3) it was greater than 10000 nM.

In the case of `Nc1ccc(/C=C/C(=O)NCc2cc3cc(-c4ccc(C(=O)N5CC6CC5CO6)cn4)cc(C(F)(F)F)c3o2)cn1` (stereo not drawn) [Compound 633, (E)-N-((5-(5-(2-oxa-5-azabicyclo[2.2.1]heptane-5-carbonyl)pyridin-2-yl)-7-(trifluoromethyl)benzofuran-2-yl)methyl)-3-(6-aminopyridin-3-yl)acrylamide], the IC50 is 100 to 5000 nM with MS751 cells (setting [1]), 100 to 5000 nM with Z138 cells (read-out: MTT Assay IC50 Z-138) and greater than 10000 nM with 3T3 cells (read-out: MTT Assay IC50 3T3).

Turning to `O=C(/C=C/c1ccc(Cl)nc1)NCc1cc2cc(-c3ccc(C(=O)N4CCOCC4)cc3)cc(Cl)c2o1` [Compound 537, (E)-N-((7-Chloro-5-(4-(morpholine-4-carbonyl)phenyl)benzofuran-2-yl)methyl)-3-(6-chloropyridin-3-yl)acrylamide], the IC50 in the experiment on MS751 cells (setting [1]), in the experiment with Z138 cells (read-out: MTT Assay IC50 Z-138) and with 3T3 cells (read-out: MTT Assay IC50 3T3) was greater than 10000 nM throughout.

Consider `O=C(/C=C/c1cccnc1)NCc1cc2cc(-c3ccc(C(=O)N4CC5(COC5)C4)cn3)cc(C(F)(F)F)c2o1` [Compound 689, (E)-N-((5-(5-(2-oxa-6-azaspiro[3.3]heptane-6-carbonyl)pyridin-2-yl)-7-(trifluoromethyl)benzofuran-2-yl)methyl)-3-(pyridin-3-yl)acrylamide], for which the IC50 was less than 100 nM in the experiment on MS751 cells (setting [2]); less than 100 nM in the experiment with Z138 cells (setting [3]); 100 to 5000 nM in the experiment on 3T3 cells (read-out: MTT Assay IC50, 3T3).

Regarding `Nc1ccc(/C=C/C(=O)NCc2cc3cc(-c4ccc(S(=O)(=O)N5CC(F)(F)C5)cc4)cc(Cl)c3o2)cn1` [Compound 642, (E)-3-(6-aminopyridin-3-yl)-N-((7-chloro-5-(4-(3,3-difluoroazetidin-1-ylsulfonyl)phenyl)benzofuran-2-yl)methyl)acrylamide], the results for the IC50 with MS751 cells (setting [1]), with Z138 cells (read-out: MTT Assay IC50 Z-138) and in the experiment with 3T3 cells (read-out: MTT Assay IC50 3T3) were 100 to 5000 nM, 100 to 5000 nM and greater than 10000 nM, respectively.

As to `CC1(O)CCN(C(=O)c2ccc(-c3cc(C(F)(F)F)c4oc(CNC(=O)/C=C/c5ccc(N)nc5)cc4c3)cc2)CC1` [Compound 571, (E)-3-(6-aminopyridin-3-yl)-N-((5-(4-(4-hydroxy-4-methylpiperidine-1-carbonyl)phenyl)-7-(trifluoromethyl)benzofuran-2-yl)methyl)acrylamide], the IC50 was 100 to 5000 nM in the experiment on MS751 cells (setting [1]), less than 100 nM in the experiment with Z138 cells (read-out: MTT Assay IC50 Z-138) and greater than 10000 nM in the experiment with 3T3 cells (read-out: MTT Assay IC50 3T3).

For `Nc1ccc(/C=C/C(=O)NCc2cc3cc(-c4ccc(C(=O)N5CCC(F)(F)CC5)cc4F)cc(C(F)(F)F)c3o2)cn1` [Compound 683, (E)-3-(6-aminopyridin-3-yl)-N-((5-(4-(4,4-difluoropiperidine-1-carbonyl)-2-fluorophenyl)-7-(trifluoromethyl)benzofuran-2-yl)methyl)acrylamide], the IC50 is 100 to 5000 nM with MS751 cells (setting [2]); 100 to 5000 nM in the experiment with Z138 cells (setting [3]); greater than 10000 nM with 3T3 cells (read-out: MTT Assay IC50, 3T3).

Turning to `Nc1ccc(/C=C/C(=O)NCc2cc3cc(-c4ccc(C(=O)N5CCC(F)(F)CC5)cc4F)cc(-c4cccc(F)c4)c3o2)cn1` [Compound 755, (E)-3-(6-aminopyridin-3-yl)-N-((5-(4-(4,4-difluoropiperidine-1-carbonyl)-2-fluorophenyl)-7-(3-fluorophenyl)benzofuran-2-yl)methyl)acrylamide], the IC50 in the experiment with MS751 cells (setting [2]) is 100 to 5000 nM; in the experiment with Z138 cells (setting [3]), less than 100 nM; in the experiment on 3T3 cells (read-out: MTT Assay IC50, 3T3), 100 to 5000 nM.

For the molecule `Nc1ccc(/C=C/C(=O)NCc2cc3cc(-c4ccc(C(=O)N5CCC(F)(F)CC5)cc4)cc(-c4cccc(C(F)(F)F)c4)c3o2)cn1` [Compound 731, (E)-3-(6-aminopyridin-3-yl)-N-((5-(4-(4,4-difluoropiperidine-1-carbonyl)phenyl)-7-(3-(trifluoromethyl)phenyl)benzofuran-2-yl)methyl)acrylamide], the IC50 was 100 to 5000 nM in the experiment on MS751 cells (setting [2]); less than 100 nM in the experiment with Z138 cells (setting [3]); 100 to 5000 nM with 3T3 cells (read-out: MTT Assay IC50, 3T3).

On to `Nc1ccc(/C=C/C(=O)NCc2cc3cc(-c4ccc(C(=O)N5CCC(F)(F)CC5)cc4)cc(-c4c(F)cc(F)cc4F)c3o2)cn1` [Compound 697, (E)-3-(6-aminopyridin-3-yl)-N-((5-(4-(4,4-difluoropiperidine-1-carbonyl)phenyl)-7-(2,4,6-trifluorophenyl)benzofuran-2-yl)methyl)acrylamide], for which the IC50 is less than 100 nM in the experiment on MS751 cells (setting [2]); less than 100 nM with Z138 cells (setting [3]); 100 to 5000 nM with 3T3 cells (read-out: MTT Assay IC50, 3T3).

As to `Nc1ccc(/C=C/C(=O)NCc2cc3cc(-c4ccc(C(=O)N5CC6CCC(C5)O6)cn4)cc(C(F)(F)F)c3o2)cn1` [Compound 632, (E)-N-((5-(5-(8-oxa-3-azabicyclo[3.2.1]octane-3-carbonyl)pyridin-2-yl)-7-(trifluoromethyl)benzofuran-2-yl)methyl)-3-(6-aminopyridin-3-yl)acrylamide], the values for the 50% inhibitory concentration (IC50) with MS751 cells (setting [1]), in the experiment with Z138 cells (read-out: MTT Assay IC50 Z-138) and in the experiment with 3T3 cells (read-out: MTT Assay IC50 3T3) were 100 to 5000 nM, 100 to 5000 nM and greater than 10000 nM, respectively.

Consider `O=C(/C=C/c1ccccn1)NCc1cc2cc(-c3ccc(C(=O)N4CCOCC4)cc3)cc(Cl)c2o1` [Compound 539, (E)-N-((7-chloro-5-(4-(morpholine-4-carbonyl)phenyl)benzofuran-2-yl)methyl)-3-(pyridin-2-yl)acrylamide], for which the IC50 was 100 to 5000 nM with MS751 cells (setting [1]), 100 to 5000 nM in the experiment on Z138 cells (read-out: MTT Assay IC50 Z-138) and greater than 10000 nM in the experiment with 3T3 cells (read-out: MTT Assay IC50 3T3).

Take `Nc1ccc(/C=C/C(=O)NCc2cc3cc(-c4ccc(C(=O)N5CCC(F)(F)CC5)cc4)cc(-c4cccc(Cl)c4)c3o2)cn1` [Compound 741, (E)-3-(6-aminopyridin-3-yl)-N-((7-(3-chlorophenyl)-5-(4-(4,4-difluoropiperidine-1-carbonyl)phenyl)benzofuran-2-yl)methyl)acrylamide]: the IC50 was less than 100 nM in the experiment on MS751 cells (setting [2]); less than 100 nM in the experiment on Z138 cells (setting [3]); 100 to 5000 nM in the experiment on 3T3 cells (read-out: MTT Assay IC50, 3T3).

Turning to `Nc1ccc(/C=C/C(=O)NCc2cc3cc(-c4ccc(C(=O)N5CCC(F)(F)CC5)cc4)cc(-c4ccc(F)cc4Cl)c3o2)cn1` [Compound 738, (E)-3-(6-aminopyridin-3-yl)-N-((7-(2-chloro-4-fluorophenyl)-5-(4-(4,4-difluoropiperidine-1-carbonyl)phenyl)benzofuran-2-yl)methyl)acrylamide], the IC50 was less than 100 nM in the experiment on MS751 cells (setting [2]); less than 100 nM in the experiment with Z138 cells (setting [3]); 100 to 5000 nM in the experiment with 3T3 cells (read-out: MTT Assay IC50, 3T3).

Consider `CC1(C)CN(C(=O)c2ccc(-c3cc(C(F)(F)F)c4oc(CNC(=O)/C=C/c5ccc(N)nc5)cc4c3)cc2)CCO1` [Compound 530, (E)-3-(6-aminopyridin-3-yl)-N-((5-(4-(2,2-dimethylmorpholine-4-carbonyl)phenyl)-7-(trifluoromethyl)benzofuran-2-yl)methyl)acrylamide], for which the results for the IC50 with MS751 cells (setting [1]), in the experiment with Z138 cells (read-out: MTT Assay IC50 Z-138) and in the experiment on 3T3 cells (read-out: MTT Assay IC50 3T3) were 100 to 5000 nM, 100 to 5000 nM and greater than 10000 nM, respectively.

As for `O=C(/C=C/c1cccnc1)NCc1cc2cc(-c3ccc(C(=O)N4CCC(F)(F)CC4)cn3)cc(OC(F)(F)F)c2o1` [Compound 752, (E)-N-((5-(5-(4,4-difluoropiperidine-1-carbonyl)pyridin-2-yl)-7-(trifluoromethoxy)benzofuran-2-yl)methyl)-3-(pyridin-3-yl)acrylamide], the IC50 was less than 100 nM in the experiment with MS751 cells (setting [2]); less than 100 nM in the experiment with Z138 cells (setting [3]); less than 100 nM in the experiment on 3T3 cells (read-out: MTT Assay IC50, 3T3).
